Test results: US11279703B2, “Fused pyrimidine compounds as BRD4 and JAK2 dual inhibitors and methods for use thereof” (APTOSE BIOSCIENCES INC., priority 2016, dated 2022)

Experiments:
[1] = target: BRD4-BD1 (Homo sapiens (Human), UniProt O60885); experiment: AlphaLisa bromodomain binding assay, BRD4-BD1; conditions: Table 6; read-out: BRD4(1) IC50
Text: An AlphaLisa assay was used to observe bromodomain binding and measure IC50s for the compounds disclosed herein. An AlphaLisa assay is a bead-based assay used to detect interactions between bromodomains and polyacetylated histone peptides. Donor and acceptor beads bound to target and ligand are brought into proximity by this protein-protein interaction.
Equipment Required • 1. […] Plate centrifuge • 3. Plate shaker • 4. […] Single channel and multi-channel pipettes • 6. Microplate reader (Pherastar)
(§1) Stock and Final Assay Concentrations (FAC) • 1. All reference and test compounds are made at a concentration of 10 mM in DMSO. Compounds are serially diluted in DMSO and a FAC starting from 10 μM to 10 point 3 fold serial dilutions is arrived. FAC of DMSO is 1%. • 2. Enzyme stock and FAC
Biotinylated substrate (Acetylated histone H4, biotinylated substrate—cat no. AS64989-025, Anaspec) stock and FAC
• 4. Acceptor and donor beads stock and FAC
Buffers • For the enzyme and substrate dilution following buffer is used (for 50 ml) • HEPES: 50 mM 2.5 ml • NaCl: 25 mM 1.25 ml • DTT: 10 mM 0.05 ml • BSA: 0.1% 0.05 g • MilliQ water: 45.7 ml • For dilution of acceptor and donor beads AlphaLISA 5× epigenetics Buffer Perkin Elmer (Cat: AL008C) is used at 1× concentration.
Procedure • 1. […] Tap the plate gently • 3. […] Cover with plate sealer • 5. […] Incubate the plate at room temperature for 10 minutes • 7. Add 10 μl of the substrate • 8. Cover with plate sealer • 9. […] Cover with plate sealer • 14. […] Cover with plate sealer • 18.
(§2) The percent inhibition is calculated in the excel analysis template and the IC50 values are subsequently determined using a sigmoidal dose-response curve (variable slope) using GraphPad Prism® 5 software.

[2] = target: JAK2 (Homo sapiens (Human), UniProt O60674); experiment: HTRF kinase assay, JAK2; format: biochemical; conditions: Table 6
Text: A kinase assay with HTRF was used to observe JAK activity and calculate the IC50s of compounds disclosed herein. HTRF is an enzymatic assay used to determine the amount of phosphorylated peptide. FRET (Fluorescence Resonance Energy Transfer) is based on the transfer of energy between two fluorophores—a donor and an acceptor—when in close proximity. Molecular interactions between biomolecules can be assessed by coupling each partner with a fluorescent label and by detecting the level of energy transfer. The amount of phopshorylated peptide can be detected using a combination of a Eu 3+Cryptate labeled anti-phospho residue antibody, SA-XL665 and a biotinylated substrate. The signal is proportional to the concentration of phospho-residues.
Equipment Required • 1. […] Plate centrifuge • 3. Plate shaker • 4. […] Single channel and multi-channel pipettes • 6. Microplate reader (Pherastar)]
as §1, with “arrived. For Ruxolitinib the starting FAC is 1 μM.” for “arrived.”
• JAK-1: Invtirogen Cat: PR8767C • JAK-2: Invtirogen Cat: PR7820B • JAK-3: Invtirogen Cat: PR7507B • 3. Substrate (synthetic peptide-Biotinylated-N-terminal tag-[…] from Biopeptide) stock and FAC
• Adenosine 5′-triphosphate disodium salt hydrate: Sigma Cat: A26209 • 5. […] Buffers • Base buffer (for 50 ml)
• HTRF buffer: • 50 mM Tris-HCl, pH—7.5 • 100 mM NaCl • 0.1% BSA • 0.05% Tween20 • 0.5 mM EDTA
To a 384 well black-plate: • 1. Add 17 μL of the buffer to each well of the 384-well black plate • 2. […] Add 5 μl of the enzyme to each well of the plate • 4. Add 10 μl of the substrate and ATP mix to all the wells • 5. Cover with plate sealer • 6. […] Incubate at room temperature for 1 hour on shaker • 8. […] Add 37.5 μL of the HTRF mix to these wells. • 9. Incubate the plate at room temperature on shaker for 45 minutes. • 10.
as §2

Sequence of JAK2 (O60674 whole entry): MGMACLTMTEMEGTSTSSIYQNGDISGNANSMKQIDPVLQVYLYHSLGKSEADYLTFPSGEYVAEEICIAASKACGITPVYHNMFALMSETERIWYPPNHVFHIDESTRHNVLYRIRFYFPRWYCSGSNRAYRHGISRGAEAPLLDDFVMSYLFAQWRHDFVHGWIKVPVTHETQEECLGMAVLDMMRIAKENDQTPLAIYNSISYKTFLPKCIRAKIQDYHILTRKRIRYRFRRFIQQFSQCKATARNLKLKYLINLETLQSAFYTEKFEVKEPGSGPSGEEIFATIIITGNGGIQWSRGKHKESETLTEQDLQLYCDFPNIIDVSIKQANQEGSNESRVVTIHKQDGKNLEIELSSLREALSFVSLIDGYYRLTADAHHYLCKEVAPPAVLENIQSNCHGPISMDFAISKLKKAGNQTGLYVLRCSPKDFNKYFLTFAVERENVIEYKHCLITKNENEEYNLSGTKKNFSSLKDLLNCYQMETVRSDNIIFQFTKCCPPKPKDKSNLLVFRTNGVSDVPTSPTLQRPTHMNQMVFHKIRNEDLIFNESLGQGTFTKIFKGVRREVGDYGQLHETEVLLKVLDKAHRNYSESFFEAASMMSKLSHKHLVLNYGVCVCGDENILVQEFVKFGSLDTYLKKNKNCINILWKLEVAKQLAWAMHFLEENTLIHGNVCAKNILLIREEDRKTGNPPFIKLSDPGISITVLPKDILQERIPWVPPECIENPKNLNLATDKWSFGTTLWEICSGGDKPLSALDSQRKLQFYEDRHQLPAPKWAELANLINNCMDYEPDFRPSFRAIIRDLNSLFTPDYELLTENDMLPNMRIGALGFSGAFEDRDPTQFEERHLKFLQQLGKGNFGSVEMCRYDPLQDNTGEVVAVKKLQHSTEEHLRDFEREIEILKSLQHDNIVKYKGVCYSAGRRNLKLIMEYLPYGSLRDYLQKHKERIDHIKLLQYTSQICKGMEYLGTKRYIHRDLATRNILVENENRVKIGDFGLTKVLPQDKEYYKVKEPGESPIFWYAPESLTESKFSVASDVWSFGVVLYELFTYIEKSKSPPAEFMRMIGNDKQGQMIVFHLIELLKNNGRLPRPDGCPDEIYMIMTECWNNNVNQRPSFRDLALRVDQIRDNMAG

SMILES	IC50 [1] [nM]	IC50 [2] [nM]
CNc1cc(Nc2ncc3ccn(-c4cccc(NS(=O)(=O)C(C)(C)C)c4)c3n2)ccc1N1CCN(C)CC1	561	22
CNC1CCN(c2ccc(Nc3ncc4ccn(-c5cccc(NS(=O)(=O)C(C)(C)C)c5)c4n3)cc2F)CC1	357	6
CC(C)(C)S(=O)(=O)Nc1cc(-n2ccc3cnc(Nc4ccc(C5CCNCC5)cc4)nc32)ccc1F	475	1600
Cc1ccc(-n2ccc3cnc(Nc4ccc(N5CCN(C)CC5)cc4)nc32)cc1NS(=O)(=O)C(C)(C)C	680	230
CN1CCN(c2ccc(Nc3ncc4ccn(-c5ccc(F)c(NS(=O)(=O)C6CC6)c5)c4n3)cc2)CC1	1490	15.3
Cc1ccc(-n2ccc3cnc(Nc4ccc(N5CCN(C)CC5)cc4)nc32)cc1NS(=O)(=O)C1CC1	3060	19.7
CC(C)(C)S(=O)(=O)Nc1cccc(Nc2nc(NC3CCNCC3)nc3sccc23)c1 [drawing 270]	257	10000
Cc1cnc(Nc2ccc(N3CCN(C)CC3)cc2)nc1Nc1cccc(NS(=O)(=O)C(C)(C)C)c1 [drawing 196]	180	10
CN1CCC(c2ccc(Nc3ncc4ccn(-c5cccc(NS(=O)(=O)C6CC6)c5)c4n3)cc2)CC1	2720	51
CNC(=O)N1CCN(c2ccc(Nc3ncc4ccn(-c5cccc(NS(=O)(=O)C(C)(C)C)c5)c4n3)cc2)CC1	3200	19
CN1CCC(Nc2nc(Nc3ccc(Cl)c(NS(=O)(=O)C(C)(C)C)c3)c3sccc3n2)CC1	900	10000
Cc1cnc(Nc2ccc(N3CCN(C)CC3)cc2)nc1Nc1cccc(NS(=O)(=O)C(C)(C)C)c1 [drawing 353]	278	6.6
O=C(NC1CCNCC1)c1ccc(Nc2ncc3ccn(-c4cccc(NS(=O)(=O)C5CC5)c4)c3n2)cc1F	1590	69
CN1CCN(c2ccc(Nc3ncc4ccn(-c5cccc(NS(=O)(=O)c6ccccc6)c5)c4n3)cc2)CC1 [drawing 287]	10000	3
CC(=O)N1CCN(c2ccc(Nc3ncc4ccn(-c5cccc(NS(=O)(=O)C6CC6)c5)c4n3)cc2)CC1	5730	24900
CN1CCN(c2ccc(Nc3ncc4ccn(-c5ccc(NS(=O)(=O)C(C)(C)C)cc5)c4n3)cc2)CC1 [drawing 362]	10000	0.7
CN1CCN(c2ccc(Nc3ncc4ccn(-c5ccccc5NS(=O)(=O)C(C)(C)C)c4n3)cc2)CC1	10000	2400
CC(C)(C)S(=O)(=O)Nc1cccc(-n2ccc3cnc(Nc4ccc(NCCN)cc4)nc32)c1	682	20
CC(C)(C)S(=O)(=O)Nc1cccc(-n2ccc3cnc(Nc4cc(F)c5c(c4)CC4CNCCN54)nc32)c1 (stereo not shown)	300	6
CN1CCN2c3ccc(Nc4ncc5ccn(-c6cccc(NS(=O)(=O)C(C)(C)C)c6)c5n4)cc3CC2C1 (stereo not shown)	366	14
CC(C)(C)S(=O)(=O)Nc1cc(-n2ccc3cnc(Nc4ccc(N5CCN(S(C)(=O)=O)CC5)c(F)c4)nc32)ccc1F	1400	400
CCC1(S(=O)(=O)Nc2cccc(-n3ccc4cnc(Nc5ccc(N6CCC(N(C)C)CC6)c(F)c5)nc43)c2)CC1	1500	5
O=S(=O)(Nc1cccc(-n2ccc3cnc(Nc4ccc(C5CCNCC5)cc4)nc32)c1)C1CC1	3210	71
CN(C)C1CCN(c2ccc(Nc3ncc4scc(-c5cccc(NS(=O)(=O)C(C)(C)C)c5)c4n3)cc2F)CC1	297	4

SMILES	IC50 [1] [nM]	IC50 [2] [nM]
CNC1CCN(c2ccc(Nc3ncc4scc(-c5ccc(F)c(NS(=O)(=O)C(C)(C)C)c5)c4n3)cc2F)CC1 [drawing 459]	308	21
COc1nc(NC2CCNCC2)nc2c1ccn2-c1cccc(NS(=O)(=O)C(C)(C)C)c1	122	3010
Cc1noc(C)c1-c1cccc(-n2ccc3cnc(Nc4ccc(N5CCN(C)CC5)cc4)nc32)c1 [drawing 285]	2330	3
CN1CCN(c2ccc(Nc3nc(-n4ccc(C(=O)NC5CC5)c4)c4ccsc4n3)cc2F)CC1	10000	10000
CN(C)C1CCN2c3ccc(Nc4ncc5ccn(-c6cccc(NS(=O)(=O)C(C)(C)C)c6)c5n4)cc3CC2C1 (stereo not shown) [drawing 444]	268	8
CN1CCN(c2ccc(Nc3ncc4cccc(-c5cccc(NS(=O)(=O)C(C)(C)C)c5)c4n3)cc2)CC1	3800	10
CN(C)C1CCN(c2ccc(Nc3ncc4ccn(-c5cccc(NS(=O)(=O)C(C)(C)C)c5)c4n3)cc2F)CC1 [drawing 401]	377	4.4
NC(=O)N1CCN(c2ccc(Nc3ncc4ccn(-c5cccc(NS(=O)(=O)C6CC6)c5)c4n3)cc2)CC1	10000	11
Cc1cnc(Nc2ccc(N3CCN(C)CC3)cc2)nc1Nc1cccc(NS(=O)(=O)C(C)(C)C)c1 [drawing 375]	316	9.3
Cc1cnc(Nc2ccc(N3CCN(C)CC3)cc2)nc1Nc1cccc(NS(=O)(=O)C(C)(C)C)c1 [drawing 231]	133	8
CNC1CCN(c2ccc(Nc3ncc4scc(-c5cccc(NS(=O)(=O)C(C)(C)C)c5)c4n3)cc2F)CC1	431	2
Cc1cnc(Nc2ccc(N3CCN(C)CC3)cc2)nc1Nc1cccc(NS(=O)(=O)C(C)(C)C)c1 [drawing 226]	221	7
Cc1cnc(Nc2ccc(N3CCN(C)CC3)cc2)nc1Nc1cccc(NS(=O)(=O)C(C)(C)C)c1 [drawing 258]	255	10
CC(=O)N1CCC(c2ccc(Nc3ncc4ccn(-c5cccc(NS(=O)(=O)C6CC6)c5)c4n3)cc2)CC1	10000	140
Cc1ccc(-n2ccc3cnc(Nc4ccc(N5CCNCC5)cc4)nc32)cc1NS(=O)(=O)C(C)(C)C	641	176
CC(C)(C)S(=O)(=O)Nc1cccc(-n2ccc3cnc(Nc4ccc5c(c4)CC4CNCCN54)nc32)c1 (stereo not shown) [drawing 404]	393	18
CN(C)C1CCN(c2ccc(Nc3ncc4scc(-c5cccc(NS(=O)(=O)C(C)(C)C)c5)c4n3)cc2)CC1	368	3
CN1CCN2c3ccc(Nc4ncc5ccn(-c6ccc(F)c(NS(=O)(=O)C(C)(C)C)c6)c5n4)cc3CC2C1 (stereo not shown)	321	137
CNCCOc1ccc(Nc2ncc3ccn(-c4cccc(NS(=O)(=O)C(C)(C)C)c4)c3n2)cc1F [drawing 460]	2300	50
CN1CCC(Nc2nc(Nc3cccc(NS(=O)(=O)C(C)(C)C)c3)c3cc[nH]c3n2)CC1	7080	10000
Cc1cnc(Nc2ccc(N3CCN(C)CC3)cc2)nc1Nc1cccc(NS(=O)(=O)C(C)(C)C)c1 [drawing 384]	138	10
CN1CCN2c3c(F)cc(Nc4ncc5ccn(-c6ccc(F)c(NS(=O)(=O)C(C)(C)C)c6)c5n4)cc3CC2C1 (stereo not shown)	383	56
CN1CCN(c2ccc(Nc3ncc4ccn(-c5cccc(CNS(=O)(=O)C(C)(C)C)c5)c4n3)cc2)CC1	8300	3
